No end group written: not given here.
Key:
[1] = tested on: human gingival fibroblasts; assay: Adhesion of human gingival fibroblasts to peptide-coated plate (crystal violet); assay type: cell-based; conditions: plate coated with 0.01 to 100 μg/ml peptide, 30 minutes incubation, P<0.01, n=8, FIG. 10
Description: (§1) An effect that is exerted on adhesive capacity of the mesenchymal cells by the SVVYGLR peptide (SEQ ID NO: 1) was analyzed. The mesenchymal cells used in this example were: human marrow-derived mesenchymal stem cells (human mesenchymal stem cell for study: provided by RIKEN CELL BANK); human gingival fibroblasts (isolated from human gingival and cultured according to a publicly known method); and human periodontal ligament cells (normal human periodontal ligament fibroblast cells: purchased from Sanko Junyaku Co., Ltd).
(§2) A coating plate was produced through the steps of: adding the synthesized SVVYGLR peptide (SEQ ID NO: 1) (0 to 100 μg/ml) to a 96-well microplate for floating cells (ASAHI TECHNO GLASS CORPORATION) for culturing these cells, allowing the microplate to stand for 2 hours at 37 °C, and rinsing the microplate twice in phosphate buffer (PBS: Sigma Pharmaceuticals Ltd). The SVVYGLR peptide (SEQ ID NO: 1) was synthesized with the method described in example 1. […]
(§3) The cells attached to the coating plate were stained with 0.1% crystal violet (Wako Chemicals USA. Inc) […], and then rinsed three times with PBS. Twenty-percent TritonX (Sigma Pharmaceuticals Ltd) was added to each well, and 48 hours later, optical density of each well at a wavelength of […] was measured (reference wavelength […]) by using an optical density spectrometer (BioRad model 680).

[2] = tested on: mesenchymal cells isolated from thigh bone marrow; assay: Pellet culture of bone marrow mesenchymal cells (three-dimensional proliferation); assay type: cell-based, Sprague-Dawley rat; conditions: 100 ng/ml peptide
Description: A pellet culture experiment was conducted to analyze how the SVVYGLR peptide (SEQ ID NO: 1) affected the mesenchymal cells when the mesenchymal cells clump together three-dimensionally over a long time.
The mesenchymal cells were isolated from thigh bone marrow of a Sprague-Dawley rat (8-week old male), and cultured in a pellet culture with initial count of 50,000 cells based on the method of Tsutsumi S et al. (Biochem Biophys Res Commun. 288:413-419:2001). The incubation was carried out with a culture medium prepared in such a manner that dexamethasone (100 nM, Sigma-Aldrich), ascorbic acid (50 μg/ml, Sigma-Aldrich), ITS+ premix (100 times diluted, BD Biosciences), and recombinant human transforming growth factor-β1 (10 ng/ml, PeproTech EC) were added to α-MEM (high glucose: Nacalai Tesque, Inc). The SVVYGLR peptide (SEQ ID NO: 1) (100 ng/ml) was added to the culture medium and the pellet was incubated for 26 days. The culture medium was replaced every other day.
The pellet was collected and fixed in phosphate buffered 10% formalin solution for 3 hours at 4° C. After the pellet was washed with PBS (pH7.4), the pellet was soaked in the PBS of a culture plate and photographed under a phase contrast microscope. Planar dimensions of the pellet on a photographed image were measured by using an image analysis software ImageJ ver.1.33u (National Institute of health, USA).

[3] = tested on: human periodontal ligament cells; assay: Adhesion of human periodontal ligament cells to peptide-coated plate (crystal violet); assay type: cell-based; conditions: plate coated with 0.01 to 100 μg/ml peptide, 30 minutes incubation, P<0.01, n=8, FIG. 11
Description: as §1, §2, §3

[4] = tested on: human bone marrow-derived mesenchymal stem cells; assay: Proliferation of human marrow-derived mesenchymal stem cells (WST-1 cell counting); assay type: cell-based; conditions: 10 to 100 ng/ml peptide, day-4 or later, P<0.01, n=6, FIG. 1
Description: (§4) An in vitro experiment was conducted to analyze how the SVVYGLR peptide (SEQ ID NO: 1) affected a proliferating ability of mesenchymal cells present in intercellular substances of bone marrow and dental pulp.
(§5) Purchased human bone marrow-derived mesenchymal stem cells (Cambrex BioScience Inc.) were used as the mesenchymal cells of the intercellular substance of bone marrow. Further, “dental pulp cells”, the mesenchymal cells that constitute a main component of dental pulp tissue, were isolated from a lower incisor of a Sprague-Dawley rat (8-week old male) and cultured based on the method of Nakamura H et al. (J Dent Res. 84: 515-520: 2005), and used for the experiment.
(§6) These cells were seeded into a 96-well cell culture plate at a rate of 5,000 cells/well, and the number of cells under the presence of the SVVYGLR peptide (SEQ ID NO: 1) (0 to 100 ng/ml) was measured by using WST-1 Cell Counting Kit (DOJINDO LABORATORIES). A culture medium was replaced every other day.

[5] = tested on: dental pulp cells; assay: Proliferation of dental pulp cells (WST-1 cell counting); assay type: cell-based, Sprague-Dawley rat; conditions: 10 to 100 ng/ml peptide, day-10 or later, P<0.01, n=6, FIG. 2
Description: as §4, §5, §6

[6] = tested on: human marrow-derived mesenchymal stem cells; assay: Adhesion of human marrow-derived mesenchymal stem cells to peptide-coated plate (crystal violet); assay type: cell-based; conditions: plate coated with 0.01 to 100 μg/ml peptide, 30 minutes incubation, P<0.01, n=8, FIG. 9
Description: as §1, §2, §3

SVVYGLR [SVVYGLR peptide, osteopontin-derived peptide of seven amino acids, synthesized by Fmoc solid-phase method]
number of human gingival fibroblasts adhered to coated plate compared to control [1]: significantly increased density-dependently | toluidine blue staining of pellet segments (extracellular matrix, acid mucopolysaccharide) ([2]; 26 days pellet culture): no toluidine blue staining was observed | pellet size (planar dimensions) relative to control group ([2]; incubated 26 days, three pellets per group, FIG. 4): 1.5 times | number of human periodontal ligament cells adhered to coated plate compared to control [3]: significantly increased density-dependently | number of human marrow-derived mesenchymal stem cells compared to control group [4]: significantly increased | number of dental pulp cells compared to control group [5]: significantly increased | number of human marrow-derived mesenchymal stem cells adhered to coated plate compared to control [6]: significantly increased density-dependently
